Measurements reported in the NIST ThermoML archive (doi:10.1016/j.jct.2017.07.011).

Test: xn = mol fraction of the nth substance listed
Conditions: 100 kPa, Liquid, Vibrating tube method

CCC(O)CC [3-pentanol] + O
mass density [kg/m3]
Conditions	x1 = 0.00117	x1 = 0.00216	x1 = 0.00361	x1 = 0.00517	x1 = 0.00616	x1 = 0.00773	x1 = 0.00866	x1 = 1
273.65 K	999.121	998.483	997.636	996.791	996.228	995.539	995.114	835.7
274.15 K	999.145	998.504	997.655	996.809	996.243	995.55	995.121	835.3
274.65 K	999.166	998.525	997.681	996.827	996.257	995.562	995.131	834.9
275.15 K	999.182	998.545	997.694	996.837	996.27	995.568	995.137	834.5
275.65 K	999.2	998.559	997.704	996.842	996.271	995.572	995.134	834.1
276.15 K	999.21	998.568	997.714	996.849	996.277	995.571	995.134	833.7
276.65 K	999.216	998.574	997.718	996.852	996.271	995.565	995.128	833.3
277.15 K	999.214	998.574	997.712	996.843	996.263	995.555	995.116	832.9
277.65 K	999.21	998.562	997.704	996.832	996.251	995.537	995.092	832.5
278.15 K	999.206	998.556	997.698	996.822	996.238	995.523	995.08	832.1
278.65 K	999.194	998.549	997.686	996.805	996.219	995.503	995.05	831.7
279.15 K	999.182	998.533	997.668	996.789	996.197	995.475	995.023	831.3
279.65 K	999.159	998.5	997.635	996.752	996.159	995.434	994.98	830.9
280.15 K	999.14	998.48	997.609	996.729	996.134	995.406	994.948	830.5
280.65 K	999.119	998.457	997.582	996.698	996.103	995.368	994.912	830.1
281.15 K	999.084	998.424	997.551	996.663	996.061	995.327	994.867	829.7
281.65 K	999.053	998.388	997.515	996.619	996.024	995.286	994.819	829.3
282.15 K	999.017	998.353	997.476	996.581	995.981	995.24	994.77	828.9

CCCC(C)O (stereo not given) [pentan-2-ol] + O
mass density [kg/m3]
Conditions	x1 = 0.00105	x1 = 0.0021	x1 = 0.00413	x1 = 0.00599	x1 = 0.00677	x1 = 0.00857	x1 = 1
273.65 K	999.095	998.354	997.02	995.922	995.484	994.604	824
274.15 K	999.119	998.377	997.038	995.939	995.499	994.61	823.6
274.65 K	999.148	998.4	997.057	995.957	995.51	994.622	823.2
275.15 K	999.16	998.416	997.073	995.965	995.523	994.625	822.8
275.65 K	999.177	998.43	997.08	995.972	995.524	994.627	822.5
276.15 K	999.187	998.44	997.09	995.972	995.527	994.622	822.1
276.65 K	999.193	998.445	997.092	995.974	995.524	994.619	821.7
277.15 K	999.185	998.444	997.082	995.964	995.512	994.604	821.3
277.65 K	999.19	998.439	997.076	995.952	995.498	994.583	820.9
278.15 K	999.187	998.426	997.066	995.938	995.484	994.566	820.6
278.65 K	999.177	998.416	997.053	995.923	995.466	994.542	820.2
279.15 K	999.163	998.401	997.037	995.898	995.439	994.519	819.8
279.65 K	999.133	998.376	997.002	995.867	995.403	994.471	819.4
280.15 K	999.115	998.36	996.978	995.84	995.375	994.439	819.1
280.65 K	999.09	998.332	996.951	995.806	995.342	994.408	818.7
281.15 K	999.058	998.301	996.915	995.769	995.301	994.365	818.3
281.65 K	999.025	998.267	996.878	995.731	995.261	994.318	817.9
282.15 K	998.992	998.234	996.841	995.688	995.214	994.273	817.5
